Reference: PubChem BioAssay AID2060891 (Molecular Pharmacology Branch, DTP, NCI, 2025)
pIC50: −log10 of the molar value.

System: K98450-129-R-PDC complex spheroid growth, percent test/control
Assay: Anticancer human tumor K98450-129-R-PDC patient-derived colon adenocarcinoma cell line growth inhibition [RAS]
Conditions: for pIC50: curve of first compound; for viability, T/C: stronger effect = lower value
Excerpt: RAS pathway inhibitors in Combinations in Complex Spheroids
A high-throughput screen of multi-cell type tumor spheroids was designed to identify active combinations of RAS pathway inhibitors and targeted small molecules. Complex spheroids include a stromal component modeled by human endothelial cells (HUVEC) and fibroblasts modeled by human mesenchymal stem cells (MSCs). The concentration ranges selected for each drug and investigational agent were based upon clinically achievable concentrations if the clinical Cmax of the agent was known.
Compounds. The drugs and investigational agents: abemaciclib (NSC768073), cobimetinib (NSC768068), divarasib (GDC6063, NSC841802), docetaxel (NSC628503), GDC-1971 (RLY-1971, NSC841576), gemcitabine (NSC613327), inavolisib (NSC800729), ipatasertib (NSC767898), KB-0742 (NSC834161), MRTX-1133 (NSC836407), osimertinib (NSC779217), RMC-4630 (NSC839698), RMC-6236 (NSC851965), RMC-6291 (NSC852671), Ro-3306 (NSC812927), sapanisertib (NSC764658), SN-38 (NSC673596), staurosporine (NSC755774), SY5609 (NSC837396), and tovorafenib (DAY101, NSC766906), were obtained from the National Cancer Institute (NCI) Developmental Therapeutics Program Chemical Repository. The FDA-approved anticancer drug set is available from the NCI Developmental Therapeutics Program. […] The stock solutions were prepared in dimethyl sulfoxide (DMSO, Sigma-Aldrich, St. Louis, MO, cat. D2650) at 800-fold the tested concentration and stored at -70 degrees C prior to their use. All drugs and investigational agents were tested over a range starting from a high concentration at or near the clinical Cmax and decreasing in half-log increments. If the clinical Cmax for an agent had not been determined, the highest concentration tested was 10 microM.
Cell Culture. All cells were maintained in an incubator at 37 degrees C and 5% CO2 with 95% humidity. The PDC lines were cultured according to standard operating procedures established by the NCI PDMR. All PDCs were thawed and cultured in Matrigel-coated flasks prepared with a working solution of 1X Ham's F-12 nutrient mix, without supplementation (Invitrogen, Waltham, MA, cat. 11765054), 100 U/mL penicillin-streptomycin (Invitrogen, cat. 15140122), and 2.5% Matrigel (Corning Inc., Corning, NY, cat. 354248) for the first three passages. The 362531-283-R-J2-PDC and 782815-120-R-J1-PDC lines were cultured in 6C/Colon 1B media, which includes advanced DMEM/F-12 (Thermo Fisher Scientific, cat. 12634028), 10 mM HEPES (Thermo Fisher Scientific, cat. 15630080), 1X GlutaMAX supplement (Thermo Fisher Scientific, cat. 35050061), 0.1 mg/mL primocin (InvivoGen, San Diego, CA, cat. ant-pm-2), 10% defined fetal bovine serum, heat inactivated (HyClone Laboratories Inc., Logan, UT, cat. SH30070.03HI), 50% L-WRN conditioned media (ATCC, cat. CRL-3276), 1.25 mM N-Acetyl-L-cysteine (Sigma-Aldrich, cat. A9165), 10 mM nicotinamide (Sigma-Aldrich, cat. N0636), 1X B-27 supplement (Thermo Fisher Scientific, cat. 17504044), 1X N-2 supplement (Thermo Fisher Scientific, cat. 17502048), 50 ng/mL human EGF (Thermo Fisher Scientific, cat. PHG0311), and 10 microM Y-27632 dihydrochloride (Tocris Bioscience, cat. 1254). The K12877-001-R-J1-PDC line was cultured in 6I media, which includes all 6C/Colon 1B media plus 10 ng/mL human FGF-10 (PeproTech, cat. 100-26), 1 ng/mL human FGF-2 (PeproTech, cat. 100-18B), 1 µM prostaglandin E2 (Tocris Bioscience, cat. 2296), […] hydrocortisone (Sigma-Aldrich, cat. H4001), and […] bovine insulin (Sigma-Aldrich, cat. I6634). The K86415-001-R-J1-PDC line was cultured in 6D media, which includes all 6C/Colon 1B media components minus the L-WRN conditioned media. The 485176-168-R4-J1-PDC was cultured in PANC media, which includes all 6C/Colon 1B media plus 100 ng/mL human FGF-10 (PeproTech, cat. 100-26), 500 nM SB-431542 (Selleckchem, cat. S1067), and 10 nM gastrin (Tocris Bioscience, cat. 3006). […]

[1] = second compound 0.0316 µM, first compound 0.0316 µM
[2] = second compound 0.0316 µM, first compound 0.1 µM
[3] = second compound 0.1 µM, first compound 0.0316 µM
[4] = second compound 0.1 µM, first compound 0.1 µM
[5] = second compound 0.316 µM, first compound 0.0316 µM
[6] = second compound 0.316 µM, first compound 0.1 µM
[7] = second compound 1 µM, first compound 0.0316 µM
[8] = second compound 1 µM, first compound 0.1 µM
[9] = second compound 3.16 µM, first compound 0.0316 µM
[10] = second compound 3.16 µM, first compound 0.1 µM
[11] = second compound 10 µM, first compound 0.0316 µM
[12] = second compound 10 µM, first compound 0.1 µM
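Note: spheroids exposed to agents for seven days before the viability readout.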
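Throughout, for viability, T/C: luminescence used as a proxy for viable cell amount.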

Work on `CC(C)n1nc(-c2ccc3oc(N)nc3c2)c2c(N)ncnc21` + C#Cc1c(F)ccc2cc(O)cc(-c3ncc4c(N5CC6CCC(C5)N6)nc(OCC56CCCN5CC(F)C6)nc4c3F)c12 yielded a pIC50 (second compound 0.0316 µM) of under 7.00, a pIC50 (second compound 0.1 µM) of under 7.00 and a pIC50 (second compound 0.316 µM) of under 7.00. For the same compound, the pIC50 (second compound 1 µM) was under 7.00, the pIC50 (second compound 3.16 µM) was under 7.00 and the pIC50 (second compound 10 µM) was under 7.00. It also gave a viability, T/C (second compound 0.0316 µM, first compound 0.000316 µM) of 110%, a viability, T/C (second compound 0.0316 µM, first compound 0.001 µM) of 104% and a viability, T/C (second compound 0.0316 µM, first compound 0.00316 µM) of 101%. The viability, T/C (second compound 0.0316 µM, first compound 0.01 µM) was 98.4%, the viability, T/C [1] was 86.5% and the viability, T/C [2] was 78.3%. For the same compound, the viability, T/C (second compound 0.1 µM, first compound 0.000316 µM) was 114%, the viability, T/C (second compound 0.1 µM, first compound 0.001 µM) was 103% and the viability, T/C (second compound 0.1 µM, first compound 0.00316 µM) was 102%. The viability, T/C (second compound 0.1 µM, first compound 0.01 µM) was 95.9%, the viability, T/C [3] was 89.2% and the viability, T/C [4] was 74.4%. For the same compound, the viability, T/C (second compound 0.316 µM, first compound 0.000316 µM) was 109%, the viability, T/C (second compound 0.316 µM, first compound 0.001 µM) was 105% and the viability, T/C (second compound 0.316 µM, first compound 0.00316 µM) was 104%. The viability, T/C (second compound 0.316 µM, first compound 0.01 µM) was 98.8%, the viability, T/C [5] was 93.1% and the viability, T/C [6] was 71.9%. The viability, T/C (second compound 1 µM, first compound 0.000316 µM) was 106%, the viability, T/C (second compound 1 µM, first compound 0.001 µM) was 107% and the viability, T/C (second compound 1 µM, first compound 0.00316 µM) was 95.1%. For the same compound, the viability, T/C (second compound 1 µM, first compound 0.01 µM) was 93.8%, the viability, T/C [7] was 82.9% and the viability, T/C [8] was 74.7%. For the same compound, the viability, T/C (second compound 3.16 µM, first compound 0.000316 µM) was 95.6%, the viability, T/C (second compound 3.16 µM, first compound 0.001 µM) was 94.8% and the viability, T/C (second compound 3.16 µM, first compound 0.00316 µM) was 92%. The viability, T/C (second compound 3.16 µM, first compound 0.01 µM) was 84.4%, the viability, T/C [9] was 80.1% and the viability, T/C [10] was 66.7%. It also gave a viability, T/C (second compound 10 µM, first compound 0.000316 µM) of 84.9%, a viability, T/C (second compound 10 µM, first compound 0.001 µM) of 82.9% and a viability, T/C (second compound 10 µM, first compound 0.00316 µM) of 87.4%. For the same compound, the viability, T/C (second compound 10 µM, first compound 0.01 µM) was 77%, the viability, T/C [11] was 69.6% and the viability, T/C [12] was 62.2%.
With `C[C@@H](NC(=O)c1ncnc(N)c1Cl)c1ncc(C(=O)Nc2cc(C(F)(F)F)c(Cl)cn2)s1` + C#Cc1c(F)ccc2cc(O)cc(-c3ncc4c(N5CC6CCC(C5)N6)nc(OCC56CCCN5CC(F)C6)nc4c3F)c12 the pIC50 (second compound 0.0316 µM) was under 5.00, the pIC50 (second compound 0.1 µM) was under 5.00 and the pIC50 (second compound 0.316 µM) was under 5.00. For the same compound, the pIC50 (second compound 1 µM) was under 5.00, the pIC50 (second compound 3.16 µM) was under 5.00 and the pIC50 (second compound 10 µM) was under 5.00. The viability, T/C [1] was 114%, the viability, T/C [2] was 117% and the viability, T/C (second compound 0.0316 µM, first compound 0.316 µM) was 118%. It also gave a viability, T/C (second compound 0.0316 µM, first compound 1 µM) of 126%, a viability, T/C (second compound 0.0316 µM, first compound 3.16 µM) of 129% and a viability, T/C (second compound 0.0316 µM, first compound 10 µM) of 103%. The viability, T/C [3] was 115%, the viability, T/C [4] was 126% and the viability, T/C (second compound 0.1 µM, first compound 0.316 µM) was 130%. It also gave a viability, T/C (second compound 0.1 µM, first compound 1 µM) of 127%, a viability, T/C (second compound 0.1 µM, first compound 3.16 µM) of 128% and a viability, T/C (second compound 0.1 µM, first compound 10 µM) of 106%. For the same compound, the viability, T/C [5] was 112%, the viability, T/C [6] was 121% and the viability, T/C (second compound 0.316 µM, first compound 0.316 µM) was 120%. It also gave a viability, T/C (second compound 0.316 µM, first compound 1 µM) of 127%, a viability, T/C (second compound 0.316 µM, first compound 3.16 µM) of 130% and a viability, T/C (second compound 0.316 µM, first compound 10 µM) of 106%. The viability, T/C [7] was 114%, the viability, T/C [8] was 115% and the viability, T/C (second compound 1 µM, first compound 0.316 µM) was 122%. The viability, T/C (second compound 1 µM, first compound 1 µM) was 112%, the viability, T/C (second compound 1 µM, first compound 3.16 µM) was 126% and the viability, T/C (second compound 1 µM, first compound 10 µM) was 102%. For the same compound, the viability, T/C [9] was 100%, the viability, T/C [10] was 108% and the viability, T/C (second compound 3.16 µM, first compound 0.316 µM) was 115%. The viability, T/C (second compound 3.16 µM, first compound 1 µM) was 115%, the viability, T/C (second compound 3.16 µM, first compound 3.16 µM) was 114% and the viability, T/C (second compound 3.16 µM, first compound 10 µM) was 92.7%. It also gave a viability, T/C [11] of 95.8%, a viability, T/C [12] of 108% and a viability, T/C (second compound 10 µM, first compound 0.316 µM) of 114%. It also gave a viability, T/C (second compound 10 µM, first compound 1 µM) of 100%, a viability, T/C (second compound 10 µM, first compound 3.16 µM) of 111% and a viability, T/C (second compound 10 µM, first compound 10 µM) of 86.2%.
